The structures appear in SMILES notation.

Sequence of human dopamine D2 receptor (P14416 whole entry): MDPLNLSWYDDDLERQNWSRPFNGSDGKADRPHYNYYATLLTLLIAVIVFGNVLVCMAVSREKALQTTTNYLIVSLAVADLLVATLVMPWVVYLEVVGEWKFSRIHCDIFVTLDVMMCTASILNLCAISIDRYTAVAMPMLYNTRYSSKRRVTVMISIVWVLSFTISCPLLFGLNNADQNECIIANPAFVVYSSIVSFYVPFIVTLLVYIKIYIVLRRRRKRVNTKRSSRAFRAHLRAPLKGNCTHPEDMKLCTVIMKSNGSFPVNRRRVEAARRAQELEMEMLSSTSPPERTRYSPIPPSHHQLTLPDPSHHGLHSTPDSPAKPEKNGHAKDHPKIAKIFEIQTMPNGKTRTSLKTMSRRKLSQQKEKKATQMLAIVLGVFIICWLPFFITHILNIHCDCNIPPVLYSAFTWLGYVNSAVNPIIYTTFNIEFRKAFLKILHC

One data set relates to animal models. The conditions noted are these: preclinical studies; cited from earlier work.
On to `COc1cccc(C(O)C2CCN(CCc3ccc(F)cc3)CC2)c1OC` (stereo not drawn) [MDL-100,907, (+)-α-(2,3-dimethoxyphenyl)-1-[2-(4-fluorophenyl)-ethyl]-4-piperidinemethanol], for which the “block of apomorphine-induced stereotyped behaviour” value was “failed to block apomorphine-induced stereotyped behaviour”.

The subject of another data set is schizophrenic patients. As to conditions: multicentre, placebo-controlled study; cited from earlier work.
As to `COc1cccc(C(O)C2CCN(CCc3ccc(F)cc3)CC2)c1OC` (stereo not drawn) [MDL-100,907, (+)-α-(2,3-dimethoxyphenyl)-1-[2-(4-fluorophenyl)-ethyl]-4-piperidinemethanol], the “efficacy for antipsychotic potential” value is listed as “demonstrated efficacy” and the neurological adverse effects entry is reported as “no neurological adverse effects”.

Another data set addresses human dopamine D2 receptor (Homo sapiens, UniProt P14416). As to conditions: cited from earlier work.
With `COc1cccc(C(O)C2CCN(CCc3ccc(F)cc3)CC2)c1OC` (stereo not drawn) [MDL-100,907, (+)-α-(2,3-dimethoxyphenyl)-1-[2-(4-fluorophenyl)-ethyl]-4-piperidinemethanol], the “activity at the human dopamine D2 receptor” value is listed as “essentially devoid of activity”.

Test system in a further data set: not given
Conditions: not given
In the case of `O=C(O)C(=O)O.c1ccc(CN2CCCC2Cc2c(-c3ccccc3)[nH]c3ccccc23)cc1` (centres unmarked), the melting point worked out at 210 °C.
On the same count and under the same terms, with `O=C(O)C(=O)O.c1ccc(CCN2CCCC2Cc2c(-c3ccccc3)[nH]c3ccccc23)cc1` (centres unmarked) the figure was 182 °C; with `O=C(O)C(=O)O.c1ccc(CN2CCC(Cc3c(-c4ccccc4)[nH]c4ccccc34)C2)cc1` (centres unmarked), 95 °C; with `O=C(O)C(=O)O.c1ccc(CCN2CCC(Cc3c(-c4ccccc4)[nH]c4ccccc34)C2)cc1` (centres unmarked), 100 °C.
For `CN1CCCC[C@H]1Cc1c(-c2ccccc2)[nH]c2ccccc12`, the melting point turned out to be 135 °C.
Same read-out and setting: as for `CN1CCC(Cc2c(-c3ccccc3)[nH]c3ccccc23)C1.O=C(O)C(=O)O` (centres unmarked), the figure is 80 °C.
On the same count and under the same terms, as for `CCN1CCCCC1Cc1c(-c2ccccc2)[nH]c2ccccc12.O=C(O)C(=O)O` (centres unmarked), the figure is 197 °C; as for `COCCN1CCCCC1Cc1c(-c2ccccc2)[nH]c2ccccc12.O=C(O)C(=O)O` (centres unmarked), 185 °C.
The same measure, in the same setting: with `O=C(O)C(=O)O.c1ccc(CN2CCCCC2Cc2c(-c3ccccc3)[nH]c3ccccc23)cc1` (centres unmarked) the figure was 235 °C; with `O=C(O)C(=O)O.c1ccc(CCN2CCCCC2Cc2c(-c3ccccc3)[nH]c3ccccc23)cc1` (centres unmarked), 232 °C.
Molecule `CN1CCNC[C@@H]1Cc1c(-c2cccc(F)c2)[nH]c2cc(F)ccc12.Cl.Cl` had a melting point of 200 °C.
The same measure, in the same setting: as for `CN1CCC[C@@H]1Cc1c(-c2ccccc2)[nH]c2ccccc12`, the figure is 132 °C; as for `CN1CCC[C@H]1Cc1c(-c2ccccc2)[nH]c2ccccc12`, 133 °C; as for `CN1C2CCC(CC2)C1Cc1c(-c2ccccc2)[nH]c2ccccc12.O=C(O)C(=O)O` (centres unmarked), 193 °C.
Same read-out and setting: as for `CN1C2CCC(C2)C1Cc1c(-c2ccccc2)[nH]c2ccccc12.Cl` (centres unmarked), the figure is 176 °C; as for `CN1CCN(C)[C@@H](Cc2c(-c3ccccc3)[nH]c3ccccc23)C1.Cl.Cl`, 253 °C; as for `CN1CCN(C)[C@@H](Cc2c(-c3ccccc3)[nH]c3c(Cl)cccc23)C1.Cl.Cl`, 260 °C.
On to `CN1CCCC(Cc2c(-c3ccccc3)[nH]c3ccccc23)C1.O=C(O)C(=O)O` (centres unmarked) (hydrate or solvate), for which the melting point turned out to be 234 °C.
Molecule `O=C(O)C(=O)O.c1ccc(CCN2CCCC(Cc3c(-c4ccccc4)[nH]c4ccccc34)C2)cc1` (centres unmarked) (hydrate or solvate) yielded a melting point of 128 °C.
Regarding `CN1CCCC[C@@H]1Cc1c(-c2ccccc2)[nH]c2ccccc12` (hydrate or solvate), the melting point was 150 °C.
Still for that read-out and setting: as for `CN1CCN[C@@H](Cc2c(-c3cccc(F)c3)[nH]c3cc(F)ccc23)C1.Cl.Cl` (hydrate or solvate), the figure is 228 °C; as for `C[C@@H]1CC[C@H](Cc2c(-c3ccccc3)[nH]c3ccccc23)N1C.O=C(O)C(=O)O` (relative stereo), 183 °C.

The values above are taken from US6479480B1, “Phenylindole derivatives as 5-ht2a receptor ligands” (Merck Sharp & Dohme Ltd., priority 1998, dated 2002).
